In the NIST ThermoML archive (doi:10.1021/je8001255):

Assay: an = ratio of the nth substance listed, in mol/kg
Conditions: 100 kPa, Liquid; for electrical conductivity: Alternating current cell with electrodes

O=S(=O)([O-])[O-].[Cd+2] [cadmium sulfate] + O
Conditions	electrical conductivity, 278.15 K [S/m]	electrical conductivity, 283.15 K [S/m]	electrical conductivity, 288.15 K [S/m]	electrical conductivity, 293.15 K [S/m]	electrical conductivity, 298.15 K [S/m]	electrical conductivity, 303.15 K [S/m]	electrical conductivity, 308.15 K [S/m]	mass density, 298.15 K [kg/m3]
a1 = 0.00493	0.0507	0.0583	0.0658	0.0734	0.0813	0.0892	0.0972	998.06
a1 = 0.01043	0.092	0.105	0.119	0.132	0.146	0.16	0.174	999.18
a1 = 0.0299	0.209	0.239	0.269	0.298	0.328	0.358	0.387	1003.14
a1 = 0.0514	0.319	0.364	0.409	0.454	0.499	0.544	0.587	1007.53
a1 = 0.1001	0.537	0.612	0.687	0.761	0.836	0.91	0.981	1017.5
a1 = 0.2017	0.93	1.06	1.19	1.32	1.44	1.57	1.69	1038.74
a1 = 0.4092	1.61	1.83	2.05	2.27	2.49	2.71	2.92	1084.21
a1 = 0.6014	2.13	2.42	2.72	3.01	3.31	3.6	3.89	1129.51
a1 = 0.8202	2.6	2.97	3.33	3.7	4.07	4.43	4.8	1185.1
a1 = 1.001	2.96	3.38	3.79	4.21	4.63	5.05	5.47	1234.43
a1 = 1.209	3.1	3.56	4.01	4.47	4.95	5.42	5.9	1295.86
a1 = 1.378	3.16	3.63	4.11	4.6	5.1	5.61	6.12	1349.9
a1 = 1.486	3.13	3.62	4.11	4.61	5.12	5.65	6.18	1385.75
a1 = 1.609	3.04	3.53	4.02	4.53	5.06	5.6	6.14	1429.78
a1 = 1.798	2.8	3.28	3.77	4.28	4.81	5.36	5.91	1500.75
a1 = 1.939	2.53	2.99	3.46	3.95	4.47	5	5.55	1556.84

O=S(=O)([O-])[O-].[Ni+2] [nickel monosulfate] + O
Conditions	electrical conductivity, 278.15 K [S/m]	electrical conductivity, 283.15 K [S/m]	electrical conductivity, 288.15 K [S/m]	electrical conductivity, 293.15 K [S/m]	electrical conductivity, 298.15 K [S/m]	electrical conductivity, 303.15 K [S/m]	electrical conductivity, 308.15 K [S/m]	mass density, 298.15 K [kg/m3]
a1 = 0.006	0.0606	0.0696	0.079	0.0886	0.0984	0.108	0.119	998.02
a1 = 0.02566	0.192	0.221	0.25	0.28	0.31	0.341	0.372	1001.23
a1 = 0.04922	0.321	0.368	0.417	0.467	0.517	0.568	0.618	1005.09
a1 = 0.122	0.656	0.753	0.852	0.954	1.06	1.16	1.26	1017.09
a1 = 0.25	1.18	1.36	1.54	1.72	1.91	2.09	2.28	1038.54
a1 = 0.3674	1.55	1.78	2.01	2.25	2.5	2.75	2.99	1058.67
a1 = 0.4988	1.94	2.23	2.52	2.83	3.14	3.45	3.76	1081.77
a1 = 0.68	2.39	2.75	3.12	3.51	3.9	4.29	4.63	1114.8
a1 = 0.7969	2.64	3.04	3.45	3.88	4.31	4.75	5.19	1136.9
a1 = 1.022	2.99	3.46	3.94	4.44	4.95	5.47	5.99	1181.4
a1 = 1.156	3.13	3.62	4.13	4.67	5.22	5.77	6.34	1208.94
a1 = 1.394	3.21	3.73	4.29	4.87	5.47	6.08	6.7	1260.5
a1 = 1.601	3.11	3.64	4.2	4.8	5.42	6.06	6.7	1308
a1 = 1.783	2.89	3.42	3.99	4.59	5.22	5.86	6.53	1351.92
